Assay results reported in patent US4702864A, “Analogs of platelet activating factor” (E. I. Du Pont de Nemours and Company, priority 1986, dated 1987).

Experiments:
[1] = test system: spontaneous hypertensive rat (SHR); assay: Antihypertensive activity in the spontaneous hypertensive rat (SHR), intravenous; type: in vivo; design: key to Blood pressure response: ++: Pronounced decrease in blood pressure (>50 mm Hg); +: Moderate decrease in blood pressure (35-50 mm Hg); ±: Threshold decrease in blood pressure (25-35 mm Hg); NE: No effect observed; conditions: for Blood pressure response: SHR
Description: In this procedure, anesthetized rats were dosed intravenously with graded dose levels the test compound on a cumulative dose schedule. The test compound was administered in an aqueous 0.25% methylcellulose vehicle at a volume to body weight ratio of 1 mL/kg. Arterial blood pressure was continuously recorded directly through an arterial cannula and a polygraph. That dose of compound producing a reduction in mean blood pressure of 30 mm Hg, or ED30, was then determined. In this manner, an ED30 of 2.00 mg/kg was determined for compound 13BII.
The antihypertensive activity of other compounds within the scope of the present invention was determined by methods substantially similar to those reported in Example 2, above, except that intravenous dosage levels of 2 and 12 mg/kg were employed. The designation "prolonged" indicates a hypotensive response lasting from 15-30 minutes. The following designations are employed to indicate the magnitude of hypotensive response: […]

porcine pancreatic PLA2 = porcine pancreatic PLA2 (Sus scrofa, UniProt P00592); assay: Inhibition of porcine pancreatic phospholipase A2 (PLA2); type: biochemical; conditions: pH 8.5, 37°, 5 minutes, 14.0 uM substrate; approximation from semilog plot
porcine pancreatic PLA2, sequence (P00592 23-146): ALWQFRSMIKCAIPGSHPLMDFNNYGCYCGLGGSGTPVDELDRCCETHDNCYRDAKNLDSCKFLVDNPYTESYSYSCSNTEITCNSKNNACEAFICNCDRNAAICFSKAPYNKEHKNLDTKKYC
Description: Inhibition of porcine pancreatic PLA2 was measured by a modification of the assay used by Hirata et al., Proc. Natl. Acad. Sci. USA 77:533 (1980). The enzyme-substrate reaction was run in a total volume of 0.1 mL with the enzyme at a final concentration of 19 units/mL (0.025 ug protein/mL) which gave approximately 4000-8000 dpm of activity in a buffer containing 25 mM Tris, 25 mM glycylglycine, 25 mM CaCl2 and 0.75 mM EDTA (tetra sodium salt), pH 8.5. Compounds to be tested as inhibitors were added to an aliquot of enzyme and incubated for 2 minutes, and then the substrate, [arachidonyl-1-^14 C] L-1-palmitoyl-2-arachidonyl phosphatidylcholine was added to provide a final concentration of 14.0 uM (80,000 dpm). The reaction was allowed to proceed for five minutes at 37°, and then halted by freezing the mixture in a dry ice-ethanol slurry. The arachidonic acid product was separated from unreacted substrate using silica gel columns.
All reactions were run in duplicate. Compounds to be tested were dissolved in 0.2M Tris-Cl, pH 8.5 or dissolved in DMSO and then diluted with Tris-Cl buffer (maximum DMSO concentration, 7%). An approximation of IC50 (the concentration of compound which inhibits the phospholipase activity by 50 percent) was determined for each compound from a semilog plot of percent inhibition versus the final inhibitor concentration.

[2] = test system: tetradecanoyl phorbol acetate (TPA)-induced edema in murine ear; assay: Topical anti-inflammatory activity, TPA-induced mouse ear edema; type: in vivo, male CF1 mice; conditions: in acetone just prior to 1 μg TPA, 4 hours after TPA
Description: Topical application of tetradecanoyl phorbol acetate (TPA) to murine skin results in an inflammatory reaction characterized by edema, a dense cellular infiltration 4-6 hours later, and an epidermal hyperplasia 24 hours following application.
To evaluate the antiinflammatory activity of certain compounds within the scope of the present invention, TPA was applied topically to ear epidermal tissue of male CF1 mice 4-6 weeks old. One μg of TPA in acetone was applied topically to one ear, while acetone only was applied to the contralateral ear of each mouse. Test compounds to be evaluated as antiinflammatory agents were applied to both ears in acetone just prior to application of TPA. Four hours after the application of the TPA, the animals were sacrificed, and 6 mm disks of tissue were excised from each treated ear and weighed. The relative amount of edema was then assessed by determining the difference in mass between control and TPA-treated tissue samples.

Row | Compound | Blood pressure response ([1]; 2 mg/kg) | Blood pressure response ([1]; 12 mg/kg) | IC50 (porcine pancreatic PLA2) [µM] | ED (30 mm Hg) ([1]; Rattus norvegicus, anesthetized SHR, cumulative dose schedule, aqueous 0.25% methylcellulose, read-out: ED30 (dose of compound producing a reduction in mean blood pressure of 30 mm Hg)) [mg/kg] | Ear Volume Reduction (%) [2] [%]
1 | CCCCCCCCSCC(COP(=O)([O-])OCC[N+](C)(C)C)NC(C)=O (stereo not shown) [Compound 10D] | NE | ++ (Pronounced decrease in blood pressure (>50 mm Hg)) | 9 | – | –
2 | CCCCCCCCCCCCCCCCSCC(COP(=O)([O-])OCC[N+](C)(C)C)NC(C)=O (stereo not shown) [Compound 10C] | – | – | 1.1 | – | –
3 | CCCCCCCCCCCCCCCCCCSCC(COP(=O)([O-])OCC[N+](C)(C)C)NC(=O)OC (stereo not shown) [Compound 13BII, 3-octadecylthio-2-carbomethoxyamidophosphatidylcholine] | ± (Threshold decrease in blood pressure (25-35 mm Hg)) | ++ (Pronounced decrease in blood pressure (>50 mm Hg)) | 19 | 2 | –
4 | CCCCCCCCCCCCCCCCCCSCC(COP(=O)([O-])OCC[N+](C)(C)C)NC(=O)CCCCCCCCCCCCCCCCC (stereo not shown) [Compound 13BI] | – | – | 0.55 | – | –
5 | CCCCCCCCCCCCCCCCSCC(COP(=O)([O-])OCC[N+](C)(C)C)NC(=O)c1ccccc1 (stereo not shown) [Compound 13CIV] | NE | ± (Threshold decrease in blood pressure (25-35 mm Hg)) | 1.4 | – | 57
6 | CCCCCCCCCCCCCCCCSCC(COP(=O)([O-])OCC[N+](C)(C)C)NC(=O)OC (stereo not shown) [Compound 13CII] | ++ (Pronounced decrease in blood pressure (>50 mm Hg)) | – | 18 | – | –
7 | CCCCCCSCC(COP(=O)([O-])OCC[N+](C)(C)C)NC(C)=O (stereo not shown) [Compound 10E] | – | – | 98 | – | –
8 | CCCCCCCCCCCCCCCCCCSCC(COP(=O)([O-])OCC[N+](C)(C)C)NC(C)=O (stereo not shown) [Compound 10B, 3-Octadecylthio-2-acetamidophosphatidylcholine] | ++ (Pronounced decrease in blood pressure (>50 mm Hg)) | – | 0.52 | – | 10
